Experimental data published in patent US10428082B2, “Triazole derivatives of melampomagnolide B and methods of use thereof” (BioVentures, LLC, priority 2016, dated 2019).

Legend:
Test in all cases: NCI 60 growth inhibition
Format in all cases: cell-based, human
OVCAR-5 = conditions: OVCAR-5, Ovarian Cancer, Table 2
Procedure: (§1) The above triazole derivatives of melampomagnolide B were evaluated for growth inhibitory properties against an NCI panel of 60 human cancer cell lines derived from nine human cancer cell types, grouped into disease sub-panels that represent leukemia, lung, colon, central nervous system (CNS), melanoma, renal, ovary, breast, and prostate cancer cells. Growth inhibitory (GI50) effects were measured as a function of the variation of optical density as a percentage of control.

SNB-19 = conditions: SNB-19, CNS Cancer, Table 2
Procedure: as §1

HCT-116 = conditions: HCT-116, Colon Cancer, Table 2
Procedure: as §1

SK-MEL-2 = conditions: SK-MEL-2, Melanoma, Table 2
Procedure: as §1

SW-620 = conditions: SW-620, Colon Cancer, Table 2
Procedure: as §1

CCRF-CEM = conditions: Leukemia, Table 2
Procedure: as §1

SN12C = conditions: Renal Cancer, Table 2
Procedure: as §1

OVCAR-8 = conditions: OVCAR-8, Ovarian Cancer, Table 2
Procedure: as §1

RPMI-8226 = conditions: RPMI-8226, Leukemia, Table 2
Procedure: as §1

EKVX = conditions: Non-Small Cell Lung Cancer, Table 2
Procedure: as §1

MCF7 = conditions: MCF7, Breast Cancer, Table 2
Procedure: as §1

HCC-2998 = conditions: HCC-2998, Colon Cancer, Table 2
Procedure: as §1

COLO 205 = conditions: COLO 205, Colon Cancer, Table 2
Procedure: as §1

SF-539 = conditions: SF-539, CNS Cancer, Table 2
Procedure: as §1

UO-31 = conditions: UO-31, Renal Cancer, Table 2
Procedure: as §1

A549/ATCC = conditions: Non-Small Cell Lung Cancer, Table 2
Procedure: as §1

SNB-75 = conditions: SNB-75, CNS Cancer, Table 2
Procedure: as §1

HS 578T = conditions: Breast Cancer, Table 2
Procedure: as §1

ACHN = conditions: Renal Cancer, Table 2
Procedure: as §1

MOLT-4 = conditions: MOLT-4, Leukemia, Table 2
Procedure: as §1

OVCAR-3 = conditions: OVCAR-3, Ovarian Cancer, Table 2
Procedure: as §1

PC-3 = conditions: PC-3, Prostate Cancer, Table 2
Procedure: as §1

A498 = conditions: A498, Renal Cancer, Table 2
Procedure: as §1

K-562 = conditions: K-562, Leukemia, Table 2
Procedure: as §1

RXF 393 = system: RXF 393
Procedure: as §1

SF-295 = conditions: SF-295, CNS Cancer, Table 2
Procedure: as §1

786-0 = conditions: 786-0, Renal Cancer, Table 2
Procedure: as §1

NCI-H23 = conditions: NCI-H23, Non-Small Cell Lung Cancer, Table 2
Procedure: as §1

IGROV1 = conditions: IGROV1, Ovarian Cancer, Table 2
Procedure: as §1

NCI-H226 = conditions: NCI-H226, Non-Small Cell Lung Cancer, Table 2
Procedure: as §1

MDA-MB-468 = conditions: MDA-MB-468, Breast Cancer, Table 2
Procedure: as §1

MDA-MB-231/ATCC = conditions: Breast Cancer, Table 2
Procedure: as §1

DU-145 = conditions: DU-145, Prostate Cancer, Table 2
Procedure: as §1

KM12 = conditions: KM12, Colon Cancer, Table 2
Procedure: as §1

MDA-MB-435 = conditions: MDA-MB-435, Melanoma, Table 2
Procedure: as §1

UACC-257 = conditions: UACC-257, Melanoma, Table 2
Procedure: as §1

NCI-H460 = conditions: NCI-H460, Non-Small Cell Lung Cancer, Table 2
Procedure: as §1

OVCAR-4 = conditions: OVCAR-4, Ovarian Cancer, Table 2
Procedure: as §1

MALME-3M = conditions: Melanoma, Table 2
Procedure: as §1

TK-10 = conditions: TK-10, Renal Cancer, Table 2
Procedure: as §1

[1] = Homo sapiens, RXF 393, RXF 393, Renal Cancer, Table 2

C=C1C(=O)O[C@H]2[C@H]1CC/C(Cn1cc(-c3cc(C(F)(F)F)cc(C(F)(F)F)c3)nn1)=C\CC[C@@]1(C)O[C@@H]21 [JVM 4-29, (1aR,7aS,10aS,10bS,E)-5-((4-(3,5-bis(Trifluoromethyl)phenyl)-1H-1,2,3-triazol-1-yl)methyl)-1a-methyl-8-methylene-2,3,6,7,7a,8,10a,10b-octahydrooxireno[2′,3′:9,10]cyclodeca[1,2-b]furan-9(1aH)-one]
GI50 (OVCAR-5; Homo sapiens): 1100 nM | GI50 (SNB-19; Homo sapiens): 1710 nM | GI50 (HCT-116; Homo sapiens): 150 nM | GI50 (SK-MEL-2; Homo sapiens): 340 nM | GI50 (SW-620; Homo sapiens): 190 nM | GI50 (CCRF-CEM; Homo sapiens): 690 nM | GI50 (SN12C; Homo sapiens): 700 nM | GI50 (OVCAR-8; Homo sapiens): 880 nM | GI50 (RPMI-8226; Homo sapiens): 220 nM | GI50 (EKVX; Homo sapiens): 1500 nM | GI50 (MCF7; Homo sapiens): 190 nM | GI50 (HCC-2998; Homo sapiens): 1170 nM | GI50 (COLO 205; Homo sapiens): 140 nM | GI50 (SF-539; Homo sapiens): 170 nM | GI50 (UO-31; Homo sapiens): 380 nM | GI50 (A549/ATCC; Homo sapiens): 1360 nM | GI50 (SNB-75; Homo sapiens): 1260 nM | GI50 (HS 578T; Homo sapiens): 1030 nM | GI50 (ACHN; Homo sapiens): 160 nM | GI50 (MOLT-4; Homo sapiens): 190 nM | GI50 (OVCAR-3; Homo sapiens): 150 nM | GI50 (PC-3; Homo sapiens): 830 nM | GI50 (A498; Homo sapiens): 430 nM | GI50 (K-562; Homo sapiens, K562): 230 nM | GI50 (RXF 393; [1]): 20 nM | GI50 (RXF 393; Homo sapiens, RXF 393, RXF 393 renal cancer cell line): 27 nM | GI50 (SF-295; Homo sapiens): 1190 nM | GI50 (786-0; Homo sapiens): 160 nM | GI50 (NCI-H23; Homo sapiens): 1120 nM | GI50 (IGROV1; Homo sapiens, IGROV-1): 840 nM | GI50 (NCI-H226; Homo sapiens): 1650 nM | GI50 (MDA-MB-468; Homo sapiens): 420 nM | GI50 (MDA-MB-231/ATCC; Homo sapiens): 330 nM | GI50 (DU-145; Homo sapiens): 720 nM | GI50 (KM12; Homo sapiens): 1040 nM | GI50 (MDA-MB-435; Homo sapiens): 740 nM | GI50 (UACC-257; Homo sapiens): 1460 nM | GI50 (NCI-H460; Homo sapiens): 1220 nM | GI50 (OVCAR-4; Homo sapiens): 500 nM | GI50 (MALME-3M; Homo sapiens): 520 nM

C=C1C(=O)O[C@H]2[C@H]1CC/C(Cn1cc(-c3cccc(Cl)c3)nn1)=C\CC[C@@]1(C)O[C@@H]21 [JVM 4-25, (1aR,7aS,10aS,10bS,E)-5((4-(3-Chlorophenyl)-1H-1,2,3-triazol-1-yl)methyl)-1a-methyl-8-methylene-2,3,6,7,7a,8,10a,10b-octahydrooxireno[2′,3′:9,10]cyclodeca[1,2-b]furan-9(1aH)-one]
GI50 (OVCAR-5; Homo sapiens): 1210 nM | GI50 (SNB-19; Homo sapiens): 2400 nM | GI50 (HCT-116; Homo sapiens): 160 nM | GI50 (SK-MEL-2; Homo sapiens): 1660 nM | GI50 (SW-620; Homo sapiens): 330 nM | GI50 (CCRF-CEM; Homo sapiens): 200 nM | GI50 (SN12C; Homo sapiens): 1400 nM | GI50 (OVCAR-8; Homo sapiens): 1310 nM | GI50 (RPMI-8226; Homo sapiens): 500 nM | GI50 (EKVX; Homo sapiens): 1570 nM | GI50 (MCF7; Homo sapiens): 310 nM | GI50 (HCC-2998; Homo sapiens): 1640 nM | GI50 (COLO 205; Homo sapiens): 410 nM | GI50 (SF-539; Homo sapiens): 250 nM | GI50 (UO-31; Homo sapiens): 1080 nM | GI50 (A549/ATCC; Homo sapiens): 1790 nM | GI50 (TK-10; Homo sapiens): 990 nM | GI50 (SNB-75; Homo sapiens): 1160 nM | GI50 (HS 578T; Homo sapiens): 2260 nM | GI50 (ACHN; Homo sapiens): 180 nM | GI50 (MOLT-4; Homo sapiens): 310 nM | GI50 (OVCAR-3; Homo sapiens): 470 nM | GI50 (PC-3; Homo sapiens): 1980 nM | GI50 (A498; Homo sapiens): 1520 nM | GI50 (K-562; Homo sapiens, K562): 400 nM | GI50 (RXF 393; [1]): 550 nM | GI50 (SF-295; Homo sapiens): 3410 nM | GI50 (786-0; Homo sapiens): 500 nM | GI50 (NCI-H23; Homo sapiens): 1580 nM | GI50 (IGROV1; Homo sapiens, IGROV-1): 730 nM | GI50 (NCI-H226; Homo sapiens): 1710 nM | GI50 (MDA-MB-468; Homo sapiens): 560 nM | GI50 (MDA-MB-231/ATCC; Homo sapiens): 1090 nM | GI50 (DU-145; Homo sapiens): 1000 nM | GI50 (KM12; Homo sapiens): 1780 nM | GI50 (MDA-MB-435; Homo sapiens): 590 nM | GI50 (UACC-257; Homo sapiens): 1420 nM | GI50 (NCI-H460; Homo sapiens): 2130 nM | GI50 (OVCAR-4; Homo sapiens): 1090 nM | GI50 (MALME-3M; Homo sapiens): 1200 nM

C=C1C(=O)O[C@H]2[C@H]1CC/C(Cn1cc(-c3cc(C)c(C)cc3C)nn1)=C\CC[C@@]1(C)O[C@@H]21 [JVM 4-50]
GI50 (OVCAR-5): 1740 nM | GI50 (SNB-19): 3900 nM | GI50 (HCT-116): 330 nM | GI50 (SK-MEL-2): 1750 nM | GI50 (SW-620): 420 nM | GI50 (CCRF-CEM): 450 nM | GI50 (SN12C): 1490 nM | GI50 (OVCAR-8): 920 nM | GI50 (RPMI-8226): 1180 nM | GI50 (EKVX): 1220 nM | GI50 (MCF7): 430 nM | GI50 (HCC-2998): 1720 nM | GI50 (COLO 205): 640 nM | GI50 (SF-539): 1160 nM | GI50 (UO-31): 520 nM | GI50 (A549/ATCC): 1730 nM | GI50 (TK-10): 1460 nM | GI50 (SNB-75): 520 nM | GI50 (HS 578T): 1940 nM | GI50 (ACHN): 1070 nM | GI50 (MOLT-4): 2380 nM | GI50 (OVCAR-3): 1030 nM | GI50 (PC-3): 1470 nM | GI50 (A498): 1040 nM | GI50 (K-562): 1390 nM | GI50 (RXF 393; RXF 393, Renal Cancer, Table 2): 960 nM | GI50 (SF-295): 6440 nM | GI50 (786-0): 1500 nM | GI50 (NCI-H23): 1770 nM | GI50 (IGROV1): 1290 nM | GI50 (NCI-H226): 1460 nM | GI50 (MDA-MB-468): 530 nM | GI50 (MDA-MB-231/ATCC): 1110 nM | GI50 (DU-145): 1350 nM | GI50 (KM12): 2310 nM | GI50 (MDA-MB-435): 1410 nM | GI50 (UACC-257): 1290 nM | GI50 (NCI-H460): 3160 nM | GI50 (OVCAR-4): 700 nM | GI50 (MALME-3M): 1430 nM
